We go through 2 compounds from ChEMBL document CHEMBL3526130, “An evaluation of using rat-derived single-dose neuropharmacokinetic parameters to project accurately large animal unbound brain drug concentrations” (Drug Metab Dispos, 2012).

Data set [1] in a line: AUC(0 to 1 hr) in cynomolgus monkey plasma treated with risperidone at 0.1 mg/kg, sc by LC-MS/MS analysis. In kind it is ADME, organism-based, Macaca fascicularis. Further details: time < 1 hr, dose 0.1 mg/kg, route subcutaneous.
Data set [2] in a line: Ratio of unbound drug level in brain to plasma in Sprague-Dawley rat treated with risperidone at 1 mg/kg, sc by LC-MS/MS analysis. It counts as ADME, organism-based. Further details: dose 1 mg/kg, route subcutaneous.
Data set [3] can be described thus: AUC(0 to 2 hrs) in Sprague-Dawley rat cerebrospinal fluid treated with risperidone at 1 mg/kg, sc by LC-MS/MS analysis. It counts as ADME, organism-based. Also on record: time < 2 hr, dose 1 mg/kg, route subcutaneous.
Data set [4] in a line: AUC(0 to 2 hrs) in Beagle dog plasma treated with risperidone at 0.1 mg/kg, sc by LC-MS/MS analysis. In kind it is ADME, organism-based, Canis lupus familiaris. Also on record: time < 2 hr, dose 0.1 mg/kg, route subcutaneous.
Data set [5] in a line: AUC(0 to 2 hrs) in Sprague-Dawley rat plasma treated with risperidone at 1 mg/kg, sc by LC-MS/MS analysis. In kind it is ADME, organism-based. Also on record: time < 2 hr, dose 1 mg/kg, route subcutaneous.
Data set [6] in a line: AUC(0 to 2 hrs) in Beagle dog brain treated with risperidone at 0.1 mg/kg, sc by LC-MS/MS analysis. In kind it is ADME, organism-based, Canis lupus familiaris. Also on record: time < 2 hr, dose 0.1 mg/kg, route subcutaneous.
The nature of data set [7]: Unbound fraction in Beagle dog brain treated with risperidone at 0.1 mg/kg, sc by LC-MS/MS analysis. It counts as ADME, organism-based, Canis lupus familiaris. Further details: dose 0.1 mg/kg, route subcutaneous.
Data set [8] in a line: AUC(0 to 1 hr) in cynomolgus monkey cerebrospinal fluid treated with risperidone at 0.1 mg/kg, sc by LC-MS/MS analysis. Also on record: time < 1 hr, dose 0.1 mg/kg, route subcutaneous. It counts as ADME, organism-based, Macaca fascicularis.
A short description of data set [9]: Unbound fraction in Beagle dog plasma treated with risperidone at 0.1 mg/kg, sc by LC-MS/MS analysis. In kind it is ADME, organism-based, Canis lupus familiaris. Also on record: dose 0.1 mg/kg, route subcutaneous.
The nature of data set [10]: AUC(0 to infinity) in Sprague-Dawley rat plasma treated with risperidone at 1 mg/kg, sc by LC-MS/MS analysis. It counts as ADME, organism-based. Further details: time infinity, dose 1 mg/kg, route subcutaneous.
The nature of data set [11]: Ratio of unbound brain concentration to drug level in cerebrospinal fluid in Sprague-Dawley rat treated with risperidone at 1 mg/kg, sc by LC-MS/MS analysis. It counts as ADME, organism-based. Further details: dose 1 mg/kg, route subcutaneous. The note with it: in vivo.
A short description of data set [12]: Ratio of unbound drug level in brain to plasma in cynomolgus monkey treated with risperidone at 0.1 mg/kg, sc by LC-MS/MS analysis. In kind it is ADME, organism-based, Macaca fascicularis. Also on record: dose 0.1 mg/kg, route subcutaneous. The conditions noted are these: brain and plasma.
Data set [13] is described as follows: Ratio of unbound drug level in brain to plasma in Beagle dog treated with risperidone at 0.1 mg/kg, sc by LC-MS/MS analysis. It counts as ADME, organism-based, Canis lupus familiaris. Further details: dose 0.1 mg/kg, route subcutaneous. The conditions noted are these: brain and plasma.
Data set [14] in a line: AUC(0 to 1 hr) in cynomolgus monkey brain treated with risperidone at 0.1 mg/kg, sc by LC-MS/MS analysis. It counts as ADME, organism-based, Macaca fascicularis. Further details: time < 1 hr, dose 0.1 mg/kg, route subcutaneous.
Data set [15] is described as follows: AUC(0 to 2 hrs) in Beagle dog cerebrospinal fluid treated with risperidone at 0.1 mg/kg, sc by LC-MS/MS analysis. In kind it is ADME, organism-based, Canis lupus familiaris. Also on record: time < 2 hr, dose 0.1 mg/kg, route subcutaneous.
Data set [16] can be described thus: Unbound fraction in cynomolgus monkey brain treated with risperidone at 0.1 mg/kg, sc by LC-MS/MS analysis. In kind it is ADME, organism-based, Macaca fascicularis. Further details: dose 0.1 mg/kg, route subcutaneous.
Data set [17] deals with Nucleic Acid. Nature of the data set: Ratio of drug level in cerebrospinal fluid to unbound plasma concentration in Sprague-Dawley rat treated with risperidone at 1 mg/kg, sc by LC-MS/MS analysis. It counts as ADME, organism-based. Also on record: dose 1 mg/kg, route subcutaneous. The note with it: in vivo.
Data set [18] can be described thus: AUC(0 to infinity) in Sprague-Dawley rat cerebrospinal fluid treated with risperidone at 1 mg/kg, sc by LC-MS/MS analysis. In kind it is ADME, organism-based. Also on record: time infinity, dose 1 mg/kg, route subcutaneous.
Data set [19] is described as follows: Ratio of drug level in brain to plasma in Sprague-Dawley rat treated with risperidone at 1 mg/kg, sc by LC-MS/MS analysis. It counts as ADME, organism-based. Also on record: dose 1 mg/kg, route subcutaneous. The conditions noted are these: read-out: BPR.
Data set [20] is described as follows: Ratio of drug level in brain to plasma in cynomolgus monkey treated with risperidone at 0.1 mg/kg, sc by LC-MS/MS analysis. It counts as ADME, organism-based, Macaca fascicularis. Further details: dose 0.1 mg/kg, route subcutaneous. The conditions noted are these: brain and plasma, read-out: BPR.
Data set [21] is described as follows: AUC(0 to infinity) in Sprague-Dawley rat brain treated with risperidone at 1 mg/kg, sc by LC-MS/MS analysis. In kind it is ADME, organism-based. Also on record: time infinity, dose 1 mg/kg, route subcutaneous.
Data set [22] in a line: AUC(0 to 2 hrs) in Sprague-Dawley rat brain treated with risperidone at 1 mg/kg, sc by LC-MS/MS analysis. Also on record: time < 2 hr, dose 1 mg/kg, route subcutaneous. In kind it is ADME, organism-based.
The nature of data set [23]: Ratio of unbound brain concentration to drug level in cerebrospinal fluid in cynomolgus monkey treated with risperidone at 0.1 mg/kg, sc by LC-MS/MS analysis. It counts as ADME, organism-based, Macaca fascicularis. The note with it: in vivo. Also on record: dose 0.1 mg/kg, route subcutaneous.
The nature of data set [24]: Unbound fraction in cynomolgus monkey plasma treated with risperidone at 0.1 mg/kg, sc by LC-MS/MS analysis. In kind it is ADME, organism-based, Macaca fascicularis. Further details: dose 0.1 mg/kg, route subcutaneous.
A short description of data set [25]: Ratio of unbound brain concentration to drug level in cerebrospinal fluid in Beagle dog treated with risperidone at 0.1 mg/kg, sc by LC-MS/MS analysis. It counts as ADME, organism-based, Canis lupus familiaris. Also on record: dose 0.1 mg/kg, route subcutaneous. The conditions noted are these: in vivo.
A short description of data set [26]: Ratio of drug level in brain to plasma in Beagle dog treated with risperidone at 0.1 mg/kg, sc by LC-MS/MS analysis. The conditions noted are these: brain and plasma, read-out: BPR. Also on record: dose 0.1 mg/kg, route subcutaneous. It counts as ADME, organism-based, Canis lupus familiaris.
Data set [27] can be described thus: AUC(0 to 7 hrs) in Sprague-Dawley rat brain at 35 mg/kg, sc by LC-MS/MS analysis. It counts as ADME, organism-based. Further details: time < 7 hr, dose 35 mg/kg, route subcutaneous.
Data set [28] deals with Nucleic Acid. Nature of the data set: Ratio of drug level in brain to plasma in Sprague-Dawley rat at 35 mg/kg, sc by LC-MS/MS analysis. In kind it is ADME, organism-based. Also on record: dose 35 mg/kg, route subcutaneous.
Data set [29] in a line: AUC(0 to infinity) in Sprague-Dawley rat brain at 35 mg/kg, sc by LC-MS/MS analysis. It counts as ADME, organism-based. Further details: dose 35 mg/kg, route subcutaneous, time infinity.
A short description of data set [30]: AUC(0 to infinity) in Sprague-Dawley rat plasma at 35 mg/kg, sc by LC-MS/MS analysis. It counts as ADME, organism-based. Further details: time infinity, dose 35 mg/kg, route subcutaneous.
Data set [31] in a line: AUC(0 to 7 hrs) in Sprague-Dawley rat cerebrospinal fluid at 35 mg/kg, sc by LC-MS/MS analysis. In kind it is ADME, organism-based. Further details: time < 7 hr, dose 35 mg/kg, route subcutaneous.
A short description of data set [32]: Ratio of unbound drug level in brain to plasma in Sprague-Dawley rat at 35 mg/kg, sc by LC-MS/MS analysis. It counts as ADME, organism-based. Also on record: dose 35 mg/kg, route subcutaneous.
Data set [33] in a line: AUC(0 to infinity) in Sprague-Dawley rat cerebrospinal fluid at 35 mg/kg, sc by LC-MS/MS analysis. In kind it is ADME, organism-based. Further details: dose 35 mg/kg, route subcutaneous, time infinity.
A short description of data set [34]: Ratio of unbound brain concentration to drug level in cerebrospinal fluid in Sprague-Dawley rat at 35 mg/kg, sc by LC-MS/MS analysis. It counts as ADME, organism-based. Further details: dose 35 mg/kg, route subcutaneous. The note with it: in vivo.
Data set [35] in a line: AUC(0 to 7 hrs) in Sprague-Dawley rat plasma at 35 mg/kg, sc by LC-MS/MS analysis. It counts as ADME, organism-based. Also on record: time < 7 hr, dose 35 mg/kg, route subcutaneous.
Data set [36] concerns Nucleic Acid. Nature of the data set: Ratio of drug level in cerebrospinal fluid to unbound plasma concentration in Sprague-Dawley rat at 35 mg/kg, sc by LC-MS/MS analysis. In kind it is ADME, organism-based. Also on record: dose 35 mg/kg, route subcutaneous. The note with it: in vivo.

For the compound `Cc1nc2n(c(=O)c1CCN1CCC(c3noc4cc(F)ccc34)CC1)CCCC2O` (stereo unspecified) [PALIPERIDONE], the AUC(0-t) (as a rule, the area under the concentration-time curve up to a stated or last time point) at 1 h came out at 76 ng·h/mL in [1], 2.54 ng·h/mL in data set [8] and 24.8 ng·h/mL in data set [14]. In addition, the Kp uu amounted to 0.04 in [2], 0.19 in data set [12] and 0.27 in [13]. For the same compound, the AUC(0-t) at 2 h was determined as 3.28 ng·h/mL in data set [3]; 77.4 ng·h/mL in data set [4]; 184 ng·h/mL in data set [5]; 47.1 ng·h/mL in [6]; 6.27 ng·h/mL in [15]; 13.5 ng·h/mL in data set [22]. The fraction unbound – broadly, free concentration divided by total concentration – in [7] came out at 0.0903; in [9] it was 0.203; in data set [16], 0.105; in data set [24] it was 0.185. In addition, the total exposure AUC(0-inf) (commonly the area under the concentration-time curve extrapolated to infinity) in data set [10] turned out to be 342 ng·h/mL; in [18], 12.2 ng·h/mL; in data set [21] it was 69 ng·h/mL. Also, the Ratio in data set [11] stood at 0.31; with Nucleic Acid [17] it was 0.14; in data set [23] it was 1.03; in [25], 0.68. The Kp in [19] came out at 0.07; in [20], 0.33; in data set [26], 0.61.

For `C=C[C@H]1C[N@@]2CC[C@H]1C[C@@H]2[C@@H](O)c1ccnc2ccc(OC)cc12` [QUINIDINE], the AUC(0-t) at 7 h in data set [27] stood at 1850 ng·h/mL; in [31], 302 ng·h/mL; in data set [35], 4920 ng·h/mL. For the same compound, the BPR in the data set with Nucleic Acid [28] worked out at 0.38. The AUC(0-inf) in [29] turned out to be 1880 ng·h/mL; in data set [30], 5310 ng·h/mL; in [33], 304 ng·h/mL. For the same compound, the Kp uu in data set [32] amounted to 0.05. Moreover, the values for the Ratio (in data set [34]; in the data set with Nucleic Acid [36]) were 0.22 and 0.23, respectively.
